# pIC50: −log10 of the molar value.
# Columns and labels:
# [1] = target: PHD3 (Homo sapiens (Human), UniProt Q9H6Z9); test: PHD enzyme assay (Eu-VBC TR-fluorescence); type: biochemical
# Method: (§1) VHL/elongin B/elongin C were constructed, expressed and purified, and VHL was labeled. PHD1, PHD2 and PHD3 were constructed, expressed and purified. VBC protein was labeled with DELFIA Eu-Labeling Kit. A NeutrAvidin 96-well plate was blocked after the addition of 200 μL Blocker Casein to each well, followed by incubation for 30 min. Each well was washed 3 times by adding 200 μL of washing buffer each time. A 200 nM HIF-1a 556-574 solution was prepared with washing buffer, and 100 μL of the solution was added to each well, followed by incubation for 60 min. Each well was washed 3 times by adding 200 μL of washing buffer each time. A 1 mM Biotin solution was prepared with Blocker Casein, and 100 μL of the solution was added to each well, followed by incubation for 30 min. Each well was washed 3 times by adding 200 μL of washing buffer each time. A 20× compound solution was prepared with PHD reaction buffer, with the final concentration of DMSO being 1%. PHD solutions were prepared with PHD reaction buffer, and the concentrations of PHD1, 2, and 3 solutions were 10 ng/μL, 5 ng/μL, and 15 ng/μL, respectively. 95 μL of the PHD solution was added to each compound well, followed by the addition of 5 μL of the compound solution, 95 μL of the PHD solution was added to each full active well, followed by the addition of 5 μL of the PHD reaction buffer; and 100 μL of the PHD reaction buffer was added to each blank well. After mixing homogeneously, the wells were incubated for 60 min. Each well was washed 3 times by adding 200 μL of washing buffer each time A 1 ng/μL Eu-VBC solution was prepared with Eu-VBC binding buffer, and 100 μL of the solution was added to each well, followed by incubation for 60 min. Each well was washed 6 times by adding 200 μL DELFIA Wash Concentrate each time. 100 μL DELFIA Enhancement Solution was added to each well. A microplate reader was used to read TR-Fluorescence at Ex340 and Em615. The flurescence of the sample wells was recorded as FLUsample, the flurescence of the full active wells was recorded as FLU100%, and the flurescence of the blank well was recorded as FLU0%.
# [2] = target: PHD1 (Homo sapiens (Human), UniProt Q96KS0); test: PHD enzyme assay (Eu-VBC TR-fluorescence); type: biochemical
# Method: as §1
# [3] = target: PHD2 (Homo sapiens (Human), UniProt Q9GZT9); test: PHD enzyme assay (Eu-VBC TR-fluorescence); type: biochemical
# Method: as §1, with “A 200 nM HIF-1a 556-574 solution was prepared with washing buffer, and 100 μL of the solution was added to each well, followed by incubation for 60 min.” left out, “PHD solutions were prepared with PHD reaction buffer, and the concentrations of PHD1, 2, and 3 solutions were 10 ng/μL, 5 ng/μL, and 15 ng/μL, respectively. 95 μL of the PHD solution was added to each compound well, followed by the addition of 5 μL of the compound solution, 95 μL of the PHD solution was added to each full active well, followed by the addition of 5 μL of the PHD reaction buffer; and 100 μL of the PHD reaction buffer was added to each blank well.” left out, “A microplate reader was used to read TR-Fluorescence at Ex340 and Em615.” left out
# [4] = system: reticulocytes; test: Effect on reticulocytes of normal mice; type: in vivo, Balb/c mice; design: Reticulocytes (RETIC), average: unit not given here; conditions: 10 mg/kg p.o., once; 72 h after administration
# Method: 72 Balb/c mice, male, were divided into 12 groups, 6 mice in each treatment group. In the positive drug control groups: the mice in the FG-4592 treatment groups were orally administered once, at two doses of 10 mg/kg and 50 mg/kg, and the mice in the rhEPO treatment group was intraperitoneaily injected once, at a dose of 100 IU/kg. The compounds of the present disclosure were all orally administered once at a dose of 10 mg/kg. 72 h after the administration, blood was collected from the orbit of all animals, and subjected to EDTA-K2 anticoagulation. Then reticulocytes (RETIC) were counted with an automatic blood cell analyzer.
# [5] = system: HIF-2α; test: Expression of HIF-2α protein in Hep3B cells (western blot, grayscale analysis); type: cell-based, Human; conditions: for fold induction at 30 µM: Homo sapiens, read-out: HIF-2α level of the compound of the present disclosure/HIF-2α level of blank control
# Method: (§2) A test compound was dissolved in dimethyl sulfoxide into a 100 mM stock solution, and then was diluted with 0.5% FBS-containing DMEM medium into 30 μM, 10 μM and 3 μM for later use. Human liver cancer cells Hep3B were seeded in a six-well plate at a density of 2.25*10^5 cells/well, 2 mL per well. After cultivation overnight, the cells were treated with compounds at different concentrations for 2 h. The proteins were extracted for western blot and further grayscale analysis.
# [6] = system: erythropoietin; test: Expression of erythropoietin in vivo (plasma EPO ELISA after single oral dose); conditions: once; for EPO OD value: plasma 6 hours after administration; for Promotion of expression of erythropoietin in vivo: at 10 mg/kg;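 on all read-outs here: male C57 mice given compound by mouth, five animals per treatment group, with EPO in plasma measured by ELISA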
# Method: (2) 30 c57 mice, male, were divided into 6 groups, 5 mice in each treatment group. […] 6 hours after the administration, blood was taken, and plasma was collected for EPO detection with an ELISA kit (R&D Co.).
# [7] = target: hERG channels (Homo sapiens (Human), UniProt Q12809); test: cell-based; type: cell-based; conditions: for Inhibitory effect on hERG current at the highest test concentration: human, 30 μM
# Method: Whole-cell patch clamp technique was used to record hERG current. A cell suspension was added to a 35 mm Petri dish, and the dish was then placed on an inverted microscope stage. After the adherence of cells, they were perfused with extracellular fluid at a flow rate of 1-2 mL/min. A glass microelectrode was drawn by a microelectrode puller in two steps, and the pipette tip resistance was between 2-5 MΩ. After establishing the whole cell recording, the clamp potential was held at −80 mV, followed by depolarization to +60 mV when given voltage stimulation and then repolarization to −50 mV to elicit hERG tail current. All recordings were performed after the current was stable. Extracellular perfusion administration started from a low concentration, staying for 5-10 min at each concentration until the current was stable, and then cells were further perfused with the next concentration.
# [8] = target: CYP1A2 (Homo sapiens (Human), UniProt P05177); type: in vitro ADME
# Source text: (§3) The compounds of the present disclosure were subjected to the CYP450 enzyme inhibition assay.
# [9] = system: Erythropoietin in liver cancer cells Hep3B; test: Expression of erythropoietin in liver cancer cells Hep3B in vitro (EPO ELISA of supernatant); type: cell-based, Human
# Method: The cells were adherent cultured overnight, and after discarding the used medium. In the 96-well culture plate, the cells were washed once with 0.5% FBS-containing DMEM medium. […] 0.5% FBS-containing DMEM medium was used instead of the drug solution as the control well. After incubation in a 37° C., 5% CO2 incubator for 24 h, the supernatant was taken as a sample and frozen at −20° C. for later use. An Elisa kit (abeam) was used to detect EPO in the cell supernatant. A microplate reader was used to detect the OD value at 450/620 nm.
# [10] = target: CYP2D6 (Homo sapiens (Human), UniProt P10635); test: CYP enzyme inhibition assay; type: in vitro ADME
# Source text: as §3
# [11] = target: CYP2C19 (Homo sapiens (Human), UniProt P33261); test: CYP enzyme inhibition assay; type: in vitro ADME
# Source text: as §3
# [12] = target: CYP2C9 (Homo sapiens (Human), UniProt P11712); test: CYP enzyme inhibition assay; type: in vitro ADME
# Source text: as §3
# [13] = target: CYP3A4-M (Homo sapiens (Human), UniProt P08684); test: CYP enzyme inhibition assay; type: in vitro ADME
# Source text: as §3
# [14] = system: HIF-1α; test: Expression of HIF-1α protein in Hep3B cells (western blot, grayscale analysis); type: cell-based, Human; conditions: for fold induction at 30 µM: Homo sapiens, read-out: HIF-1α level of the compound of the present disclosure/HIF-1α level of blank control
# Method: as §2
# [15] = 2 h, compound at 30 μM, 10 μM and 3 μM
# Sequence of PHD3 (Q9H6Z9 whole entry): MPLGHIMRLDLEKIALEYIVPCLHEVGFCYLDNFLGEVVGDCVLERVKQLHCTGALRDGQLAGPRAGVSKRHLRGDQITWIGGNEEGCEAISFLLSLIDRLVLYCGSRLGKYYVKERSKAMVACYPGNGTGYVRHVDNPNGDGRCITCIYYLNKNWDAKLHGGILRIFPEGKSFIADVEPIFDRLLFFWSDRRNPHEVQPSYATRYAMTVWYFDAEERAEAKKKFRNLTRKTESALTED
# Sequence of hERG channels (Q12809 whole entry, the tested form may be a part): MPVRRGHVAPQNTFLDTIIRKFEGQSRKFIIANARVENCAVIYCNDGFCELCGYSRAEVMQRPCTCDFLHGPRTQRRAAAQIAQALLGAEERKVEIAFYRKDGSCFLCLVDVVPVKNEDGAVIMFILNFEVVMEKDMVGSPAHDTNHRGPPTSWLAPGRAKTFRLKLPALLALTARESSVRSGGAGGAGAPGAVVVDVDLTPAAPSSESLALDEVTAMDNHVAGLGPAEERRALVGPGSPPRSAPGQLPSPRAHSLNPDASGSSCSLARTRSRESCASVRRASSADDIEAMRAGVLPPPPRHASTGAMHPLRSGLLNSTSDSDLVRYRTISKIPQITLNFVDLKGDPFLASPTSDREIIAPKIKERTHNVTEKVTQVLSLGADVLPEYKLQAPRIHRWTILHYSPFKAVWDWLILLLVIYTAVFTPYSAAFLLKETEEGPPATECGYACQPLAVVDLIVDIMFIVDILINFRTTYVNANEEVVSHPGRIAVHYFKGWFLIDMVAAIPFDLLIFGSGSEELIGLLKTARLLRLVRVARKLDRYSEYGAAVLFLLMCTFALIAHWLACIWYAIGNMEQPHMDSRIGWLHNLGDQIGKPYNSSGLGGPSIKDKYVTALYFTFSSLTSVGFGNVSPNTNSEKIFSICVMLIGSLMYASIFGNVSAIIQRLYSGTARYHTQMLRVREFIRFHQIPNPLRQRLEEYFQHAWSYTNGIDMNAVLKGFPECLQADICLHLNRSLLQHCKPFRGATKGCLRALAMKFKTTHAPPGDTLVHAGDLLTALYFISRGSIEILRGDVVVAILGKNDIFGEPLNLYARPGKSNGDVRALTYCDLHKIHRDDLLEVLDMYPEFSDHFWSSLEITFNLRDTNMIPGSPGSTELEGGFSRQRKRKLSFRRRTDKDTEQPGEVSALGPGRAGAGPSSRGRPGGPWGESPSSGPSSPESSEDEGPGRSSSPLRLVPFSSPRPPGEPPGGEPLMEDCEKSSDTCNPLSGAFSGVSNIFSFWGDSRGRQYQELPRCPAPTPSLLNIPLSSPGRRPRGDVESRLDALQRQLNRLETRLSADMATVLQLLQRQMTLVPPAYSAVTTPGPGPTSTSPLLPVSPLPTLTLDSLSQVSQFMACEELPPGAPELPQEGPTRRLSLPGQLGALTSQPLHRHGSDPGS
# Sequence of PHD1 (Q96KS0 whole entry): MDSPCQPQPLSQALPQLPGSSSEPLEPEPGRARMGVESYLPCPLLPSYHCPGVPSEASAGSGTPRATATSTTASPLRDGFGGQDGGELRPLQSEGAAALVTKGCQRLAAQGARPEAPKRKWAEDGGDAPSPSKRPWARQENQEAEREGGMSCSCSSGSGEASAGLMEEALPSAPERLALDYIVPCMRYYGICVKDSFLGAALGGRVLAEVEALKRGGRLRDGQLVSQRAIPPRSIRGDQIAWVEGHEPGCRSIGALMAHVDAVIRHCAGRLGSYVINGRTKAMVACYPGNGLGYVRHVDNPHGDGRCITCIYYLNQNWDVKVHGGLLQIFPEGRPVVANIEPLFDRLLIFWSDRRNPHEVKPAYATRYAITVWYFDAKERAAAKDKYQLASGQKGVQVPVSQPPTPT
# Sequence of CYP2C19 (P33261 whole entry): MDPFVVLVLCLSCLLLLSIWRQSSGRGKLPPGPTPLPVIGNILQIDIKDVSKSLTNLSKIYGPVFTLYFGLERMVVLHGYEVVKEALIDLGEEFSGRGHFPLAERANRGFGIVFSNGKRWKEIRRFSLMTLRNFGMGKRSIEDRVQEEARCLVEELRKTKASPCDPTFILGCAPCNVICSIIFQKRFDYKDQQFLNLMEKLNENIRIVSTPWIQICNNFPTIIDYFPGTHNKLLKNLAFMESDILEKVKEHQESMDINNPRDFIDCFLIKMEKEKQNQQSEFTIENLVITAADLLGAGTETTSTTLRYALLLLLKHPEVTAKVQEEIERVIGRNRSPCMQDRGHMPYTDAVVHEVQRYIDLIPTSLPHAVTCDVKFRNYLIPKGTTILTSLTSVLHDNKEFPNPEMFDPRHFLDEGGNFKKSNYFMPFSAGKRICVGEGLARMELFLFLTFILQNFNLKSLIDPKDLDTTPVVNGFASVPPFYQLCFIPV
# Sequence of CYP3A4-M (P08684 whole entry): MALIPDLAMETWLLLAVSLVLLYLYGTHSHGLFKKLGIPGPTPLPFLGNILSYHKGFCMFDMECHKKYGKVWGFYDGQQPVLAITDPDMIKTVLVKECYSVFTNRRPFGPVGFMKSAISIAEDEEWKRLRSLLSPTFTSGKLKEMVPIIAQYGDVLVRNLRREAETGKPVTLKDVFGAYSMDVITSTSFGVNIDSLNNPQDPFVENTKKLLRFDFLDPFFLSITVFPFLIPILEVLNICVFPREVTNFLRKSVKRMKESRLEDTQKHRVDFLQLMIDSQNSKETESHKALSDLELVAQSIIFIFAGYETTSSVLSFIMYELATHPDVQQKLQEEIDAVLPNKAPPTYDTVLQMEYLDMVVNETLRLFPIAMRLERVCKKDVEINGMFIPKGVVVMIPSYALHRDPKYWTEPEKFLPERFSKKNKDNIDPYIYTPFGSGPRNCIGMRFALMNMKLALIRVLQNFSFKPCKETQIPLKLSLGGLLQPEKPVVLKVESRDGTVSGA
# Sequence of CYP1A2 (P05177 whole entry): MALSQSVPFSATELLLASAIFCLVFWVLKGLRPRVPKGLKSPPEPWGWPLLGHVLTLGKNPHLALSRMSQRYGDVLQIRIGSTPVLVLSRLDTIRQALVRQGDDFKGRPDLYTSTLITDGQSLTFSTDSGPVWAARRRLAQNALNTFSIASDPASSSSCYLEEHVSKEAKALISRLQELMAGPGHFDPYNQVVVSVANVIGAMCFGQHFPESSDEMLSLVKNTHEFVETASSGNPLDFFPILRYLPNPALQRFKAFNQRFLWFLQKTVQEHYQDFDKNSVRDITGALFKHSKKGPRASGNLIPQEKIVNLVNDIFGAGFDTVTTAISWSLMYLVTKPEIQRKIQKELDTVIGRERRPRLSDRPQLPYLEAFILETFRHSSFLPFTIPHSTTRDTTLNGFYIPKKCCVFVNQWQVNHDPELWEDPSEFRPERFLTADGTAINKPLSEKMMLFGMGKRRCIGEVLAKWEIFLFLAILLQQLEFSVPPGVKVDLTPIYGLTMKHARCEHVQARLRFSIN
# Sequence of CYP2D6 (P10635 whole entry): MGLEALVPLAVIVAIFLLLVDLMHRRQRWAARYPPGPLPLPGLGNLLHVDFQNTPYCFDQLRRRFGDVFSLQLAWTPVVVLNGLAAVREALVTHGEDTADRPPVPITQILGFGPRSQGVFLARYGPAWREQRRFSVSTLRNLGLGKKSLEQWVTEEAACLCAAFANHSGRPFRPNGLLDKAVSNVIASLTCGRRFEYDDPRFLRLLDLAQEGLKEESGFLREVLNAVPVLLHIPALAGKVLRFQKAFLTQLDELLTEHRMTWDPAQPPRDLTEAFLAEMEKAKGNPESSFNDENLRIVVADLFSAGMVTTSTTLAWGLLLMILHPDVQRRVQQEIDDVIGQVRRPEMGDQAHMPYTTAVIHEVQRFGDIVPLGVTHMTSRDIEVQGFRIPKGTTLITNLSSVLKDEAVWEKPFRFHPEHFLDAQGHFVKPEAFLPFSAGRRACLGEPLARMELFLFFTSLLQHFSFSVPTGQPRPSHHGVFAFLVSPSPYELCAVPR
# Sequence of CYP2C9 (P11712 whole entry): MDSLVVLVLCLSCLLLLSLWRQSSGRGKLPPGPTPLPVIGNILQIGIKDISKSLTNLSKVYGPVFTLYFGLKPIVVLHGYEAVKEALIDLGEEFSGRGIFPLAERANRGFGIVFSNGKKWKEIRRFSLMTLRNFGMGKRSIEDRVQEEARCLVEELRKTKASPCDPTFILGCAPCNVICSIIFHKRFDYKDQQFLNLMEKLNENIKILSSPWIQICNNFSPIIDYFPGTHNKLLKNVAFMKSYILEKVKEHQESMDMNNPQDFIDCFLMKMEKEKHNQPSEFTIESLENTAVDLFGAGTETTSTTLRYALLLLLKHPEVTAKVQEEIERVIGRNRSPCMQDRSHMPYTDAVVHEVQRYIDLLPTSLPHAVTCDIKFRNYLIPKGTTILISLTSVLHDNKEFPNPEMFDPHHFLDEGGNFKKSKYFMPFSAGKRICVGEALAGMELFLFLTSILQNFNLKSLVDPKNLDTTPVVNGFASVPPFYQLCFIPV
# Sequence of PHD2 (Q9GZT9 whole entry): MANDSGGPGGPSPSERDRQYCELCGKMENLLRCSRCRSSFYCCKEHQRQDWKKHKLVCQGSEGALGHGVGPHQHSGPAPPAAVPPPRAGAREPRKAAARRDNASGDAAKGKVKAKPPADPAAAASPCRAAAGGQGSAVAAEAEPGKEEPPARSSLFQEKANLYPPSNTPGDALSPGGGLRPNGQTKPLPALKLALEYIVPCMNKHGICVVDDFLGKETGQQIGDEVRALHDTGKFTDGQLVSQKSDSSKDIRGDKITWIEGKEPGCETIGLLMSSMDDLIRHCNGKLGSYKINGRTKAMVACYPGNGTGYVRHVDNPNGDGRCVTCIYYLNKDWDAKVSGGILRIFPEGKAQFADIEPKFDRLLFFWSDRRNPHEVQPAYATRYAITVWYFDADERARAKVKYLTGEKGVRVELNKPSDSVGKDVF
IC50 [1] [nM],IC50 [2] [nM],pIC50 [8],pIC50 [10],pIC50 [11],pIC50 [12],pIC50 [13],SMILES,"Reticulocytes (RETIC), average [4]",HIF-2α protein expression compared with blank control [5],"fold induction at 30 µM [5, 15]",EPO OD value ([6]; 10 mg/kg),EPO OD value ([6]; 50 mg/kg),Promotion of expression of erythropoietin in vivo [6],pIC50 [7],Inhibitory effect on hERG current at the highest test concentration [7],EPO-enhancing effect compared with positive control drug FG4592 [9],HIF-1α protein expression compared with blank control [14],"fold induction at 30 µM [14, 15]",further results
561,273,–,–,–,–,–,"O=C(O)CNC(=O)c1nc(Cl)c2cc(Oc3ccccc3)ccc2c1O [Comparative Example 1, reference compound]",–,–,–,–,–,–,–,–,–,–,–,–
492,335,–,–,–,–,–,"O=C(O)CNC(=O)c1ncc2nc(Oc3ccccc3)ccc2c1O [Comparative Example 2, 2-(5-hydroxy-2-phenoxy-1,7-naphthyridine-6-formamido) acetic acid, reference compound]",–,–,–,–,–,–,–,–,–,–,–,–
544,452,–,–,–,–,–,"O=C(O)CNC(=O)c1nc(Br)c2cc(Oc3ccccc3)ccc2c1O [Comparative Example 3, reference compound]",–,–,–,–,–,–,–,–,–,–,–,IC50 [3]: 951 nM
–,–,< 4.30,< 4.30,< 4.30,< 4.30,< 4.30,"O=C(O)CNC(=O)c1nc(Cl)c2nc(Oc3ccccc3Cl)ccc2c1O [Link-124, 2-(2-(2-chlorophenoxy)-5-hydroxy-8-chloro-1,7-naphthyridine-6-formamido) Acetic Acid]",6.80,higher than that of the blank control,4.5 to 8.5,D (D represents EPO OD value>3),D (D represents EPO OD value>3),significantly promote the expression of erythropoietin,< 4.52,far from the IC50 value,higher than that of the positive control drug FG4592,higher than that of the blank control,4.5 to 8.5,–
–,–,< 4.30,< 4.30,< 4.30,< 4.30,< 4.30,"O=C(O)CNC(=O)c1nc(Br)c2nc(Oc3ccc(Cl)cc3)ccc2c1O [Link-129, 2-(2-(4-chlorophenoxy)-5-hydroxy-8-bromo-1,7-naphthyridine-6-formamido) Acetic Acid]",7.30,higher than that of the blank control,1 to 4.5,D (D represents EPO OD value>3),D (D represents EPO OD value>3),significantly promote the expression of erythropoietin,< 4.52,far from the IC50 value,–,higher than that of the blank control,1 to 4.5,–
–,–,–,–,–,–,–,"O=C(O)CNC(=O)c1nc(Cl)c2nc(Oc3ccc(F)cc3)ccc2c1O [Link-130, 2-(2-(4-fluorophenoxy)-5-hydroxy-8-chloro-1,7-naphthyridine-6-formamido) Acetic Acid]",–,higher than that of the blank control,–,C (C represents 2<EPO OD value<3),D (D represents EPO OD value>3),significantly promote the expression of erythropoietin,–,–,higher than that of the positive control drug FG4592,higher than that of the blank control,–,"HIF-2α level of the compound of the present disclosure/HIF-2α level of blank control [5, 15]: B (B represents 4.5 < protein ratio < 8.5); EPO level of the compound of the present disclosure/EPO level of FG4592 ([9]; 24 h, compound at 100 μM and 10 μM, supernatant ELISA): C (C represents EPO ratio ≥ 1.3); HIF-1α level of the compound of the present disclosure/HIF-1α level of blank control [14, 15]: B (B represents 4.5 < protein ratio < 8.5)"

# Reference: patent US11981669B2, “1,7-naphthyridine derivative and preparation method and use therefor” (CSPC ZHONGQI PHARMACEUTICAL TECHNOLOGY (SHIJIAZHUANG) CO., …, priority 2018, dated 2024)
